Data reported in ChEMBL document CHEMBL1144673, “Discovery of novel alpha-glucosidase inhibitors based on the virtual screening with the homology-modeled protein structure” (Bioorg Med Chem, 2008).

Target: Alpha-glucosidase MAL12 (Saccharomyces cerevisiae S288c) (UniProt P53341)
Experiment: Inhibition of bakers yeast alpha-glucosidase at 50 uM

Chain of Alpha-glucosidase MAL12 (Saccharomyces cerevisiae S288c) (P53341 whole entry): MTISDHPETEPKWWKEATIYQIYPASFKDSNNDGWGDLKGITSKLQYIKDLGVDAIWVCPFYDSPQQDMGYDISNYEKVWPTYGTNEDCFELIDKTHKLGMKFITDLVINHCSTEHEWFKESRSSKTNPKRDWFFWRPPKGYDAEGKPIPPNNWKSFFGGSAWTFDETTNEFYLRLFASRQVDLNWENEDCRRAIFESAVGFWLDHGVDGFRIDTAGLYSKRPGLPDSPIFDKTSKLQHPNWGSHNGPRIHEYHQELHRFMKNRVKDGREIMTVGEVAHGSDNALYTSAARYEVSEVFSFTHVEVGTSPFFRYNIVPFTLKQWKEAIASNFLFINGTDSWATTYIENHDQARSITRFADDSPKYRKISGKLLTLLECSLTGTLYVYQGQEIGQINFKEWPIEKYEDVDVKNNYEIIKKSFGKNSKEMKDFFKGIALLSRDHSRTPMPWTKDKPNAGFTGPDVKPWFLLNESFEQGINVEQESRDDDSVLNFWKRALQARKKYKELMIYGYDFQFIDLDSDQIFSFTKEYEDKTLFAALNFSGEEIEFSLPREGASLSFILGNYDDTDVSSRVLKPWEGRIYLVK

SMILES	inhibition [%]
O=C(Cn1c(=O)n(CC(=O)NCc2ccccc2)c2cc(Cl)ccc21)NCc1ccccc1	62.4
Oc1ccc(-c2nnc(Nc3cccc(O)c3)c3ccccc23)cc1	61.4
O=C1NC(=O)N(c2ccccc2F)C(=O)/C1=C\c1ccccc1OCc1ccc(C(=O)O)cc1	54
N#CC1=C(N)n2c(s/c(=C\c3ccc(O)cc3)c2=O)=C(C(N)=O)C1c1ccc(O)cc1 (stereo not drawn)	59.2
O=C(Nc1ccccc1O)c1ccc(Oc2cccc(C(=O)Nc3ccccc3O)c2)cc1	70.1
Cn1cc(/C=C/C(=O)NC(=O)c2ccccc2O)c2ccccc21	71.4
N#CC1=C(N)n2c(s/c(=C\c3ccccc3F)c2=O)=C(C(N)=O)C1c1ccccc1F (stereo not drawn)	62.2
O=C(CSc1nnc(COc2cccc3cccnc23)n1-c1ccccc1)c1ccc(Cl)cc1	66.5
COc1ccc(N2C(=O)NC(=O)/C(=C\c3cn(CC(=O)Nc4ccccc4)c4ccccc34)C2=O)cc1	50.6
Cc1ccc(/N=c2\cc(-c3ccc4c(c3)OCO4)oc3ccc(O)cc23)cc1C	58
O=C(CSc1nc2ccccc2c(=O)n1-c1ccccc1)NCc1ccccc1	50.9
Cc1ccc(-n2c(SCC(=O)Nc3ccc(F)c(F)c3)nnc2-c2ccccc2)cc1	63.1
O=C(Nc1nccs1)c1c(O)c2ccccc2n(Cc2ccccc2)c1=O	52.3
